From US10285982B2, “3-(1H-pyrrolo[2,3-B]pyridin-2-yl)-1H-pyrazolo[3,4-C]pyridines and therapeutic uses thereof” (Samumed, LLC, priority 2015, dated 2019)
pEC50: −log10 of the molar value.

How the values were obtained:
[1] = test system: primary human mesenchymal stem cells (hMSCs); assay: Chondrogenesis induction in hMSCs (nodule count); assay type: cell-based; details: 144 h, hMSC chondrogenesis, 6 days; for Emax: relative to TGF-β3 (10 ng/mL) positive control, read-out: Max. Activity as % TGF-β3 activity; for EC50: concentration required to induce 50% of TGF-β3 level, read-out: Conc. (nM) of 50% TGF-β3 activity
Procedure: Representative compounds were screened using primary human mesenchymal stem cells (hMSCs) to determine their ability to induce chondrogenesis (process by which cartilage is developed).
Primary human mesenchymal stem cells (hMSCs) were purchased from Lonza (Walkersville, Md.) and expanded in Mesenchymal Stem Cell Growth Media (Lonza). Cells between passage 3 and 6 were used for the experiments.
Each compound was dissolved in DMSO as a 10 mM stock and used to prepare compound source plates. Serial dilution (1:3, 6-point dose-response curves from 2700 nM to 10 nM) and compound transfer was performed using the ECHO 550 (Labcyte, Sunnyvale, Calif.) into 96-well clear bottom assay plates (Greiner Bio-One) with appropriate DMSO backfill for a final DMSO concentration of 0.03%. hMSCs were plated at 20,000 cells/well in 250 μL/well Incomplete Chondrogenic Induction Medium (Lonza; DMEM, dexamethasone, ascorbate, insulin-transferrin-selenium [ITS supplement], gentamycin-amphotericin [GA-1000], sodium pyruvate, proline and L-glutamine). TGF-β3 (10 ng/mL) was used as a positive control for differentiation while negative control wells were treated with 75 nL DMSO for normalization and calculating EC50 values. Cells were incubated at 37° C. and 5% CO2 for 6 days. To image chondrogenic nodules, the cells were fixed using 4% formaldehyde (Electron Microscopy Sciences), and stained with 2 μg/mL Rhodamine B (Sigma-Aldrich) and 20 μM Nile Red (Sigma-Aldrich) [Johnson K., et. al, A Stem Cell-Based Approach to Cartilage Repair, Science, (2012), 336(6082), 717-721]. The nodules imaged (4 images per well at 4× magnification) by excitation at 531 nm and emission at 625 nm and quantified using the CellInsight CX5 (Thermo Scientific). Number of nodules in each well was normalized to the average of 3 DMSO treated wells on the same plate using Excel (Microsoft Inc.). The normalized averages (fold change over DMSO) of 3 replicate wells for each compound concentration were calculated. Due to solubility limitations of some of the compounds, curve fitting was incomplete leading to inaccurate EC50 determinations.
Using TGF-β3 as a positive control, the concentration of representative compounds required to induce 50% levels of chondrogenesis is reported. In addition, the maximum activity of each compound and the respective dose that each compound reached maximum chondrogenesis activity is reported.

[2] = test system: primary human fibroblasts derived from IPF patients (LL29 cells) treated with TGF-β1; assay: Inhibition of fibrotic process, αSMA staining in TGF-β1 treated LL29 fibroblasts; assay type: cell-based; details: Fibroblast; for pEC50: 96 h, % αSMA positive LL29 cells, TGF-β1 20 ng/mL, 4 days; for inhibition at 10 µM: given where EC50 >10 μM, αSMA, LL29 cells, TGF-β1, read-out: percent inhibition at 10 μM
Summary of the method: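 Potency reflects suppression of TGF-β1-driven αSMA expression in IPF patient fibroblasts over 4 days. Values are EC50s from normalized αSMA-positive cell counts, with % inhibition at 10 μM when EC50 exceeded 10 μM.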

Row | SMILES | Emax [1] | pEC50 [2] | EC50 [1] | inhibition at 10 µM [2]
1 | CCNCc1cncc(-c2cc3c(-c4cc5c(-c6cccnc6)ccnc5[nH]4)n[nH]c3cn2)c1 [Compound 90, N-((5-(3-(4-(Pyridin-3-yl)-1H-pyrrolo[2,3-b]pyridin-2-yl)-1H-pyrazolo[3,4-c]pyridin-5-yl)pyridin-3-yl)methyl)ethanamine] | 49% | 5.79 |  | 
2 | O=C(Nc1cncc(-c2cc3c(-c4cc5c(-c6cccnc6)ccnc5[nH]4)n[nH]c3cn2)c1)c1ccccc1 [Compound 95, N-(5-(3-(4-(Pyridin-3-yl)-1H-pyrrolo[2,3-b]pyridin-2-yl)-1H-pyrazolo[3,4-c]pyridin-5-yl)pyridin-3-yl)benzamide] | 64% | < 5.00 | 10 nM | 0.8%
3 | CC(C)Nc1cncc(-c2cc3c(-c4cc5c(-c6cccnc6)ccnc5[nH]4)n[nH]c3cn2)c1 [Compound 96, N-Isopropyl-5-(3-(4-(pyridin-3-yl)-1H-pyrrolo[2,3-b]pyridin-2-yl)-1H-pyrazolo[3,4-c]pyridin-5-yl)pyridin-3-amine] | 77% | < 5.00 | 10 nM | 0%
4 | c1cncc(-c2ccnc3[nH]c(-c4n[nH]c5cnc(-c6cncc(CN7CCCC7)c6)cc45)cc23)c1 [Compound 98, 3-(4-(Pyridin-3-yl)-1H-pyrrolo[2,3-b]pyridin-2-yl)-5-(5-(pyrrolidin-1-ylmethyl)pyridin-3-yl)-1H-pyrazolo[3,4-c]pyridine] | 17% | 5.09 |  | 
5 | CCCCC(=O)Nc1cncc(-c2cc3c(-c4cc5c(-c6cccnc6)ccnc5[nH]4)n[nH]c3cn2)c1 [Compound 103, N-(5-(3-(4-(Pyridin-3-yl)-1H-pyrrolo[2,3-b]pyridin-2-yl)-1H-pyrazolo[3,4-c]pyridin-5-yl)pyridin-3-yl)pentanamide] | 53% | < 5.00 | 10 nM | 4.8%
6 | c1cncc(-c2ccnc3[nH]c(-c4n[nH]c5cnc(-c6cncnc6)cc45)cc23)c1 [Compound 111, 3-(4-(Pyridin-3-yl)-1H-pyrrolo[2,3-b]pyridin-2-yl)-5-(pyrimidin-5-yl)-1H-pyrazolo[3,4-c]pyridine] | 50% | < 5.00 |  | 1.4%
7 | CN(C)Cc1cncc(-c2cc3c(-c4cc5c(-c6ccncc6)ccnc5[nH]4)n[nH]c3cn2)c1 [Compound 125, N,N-Dimethyl-1-(5-(3-(4-(pyridin-4-yl)-1H-pyrrolo[2,3-b]pyridin-2-yl)-1H-pyrazolo[3,4-c]pyridin-5-yl)pyridin-3-yl)methanamine] | 33% | 5.30 |  | 
8 | CN1CCN(c2ccnc3[nH]c(-c4n[nH]c5cnc(-c6cncc(N(C)C)c6)cc45)cc23)CC1 [Compound 231, N,N-Dimethyl-5-(3-(4-(4-methylpiperazin-1-yl)-1H-pyrrolo[2,3-b]pyridin-2-yl)-1H-pyrazolo[3,4-c]pyridin-5-yl)pyridin-3-amine] | 14% | < 5.00 |  | 41.8%
9 | CN1CCN(c2ccnc3[nH]c(-c4n[nH]c5cnc(-c6cncc(CNCC7CCCC7)c6)cc45)cc23)CC1 [Compound 249, 1-Cyclopentyl-N-((5-(3-(4-(4-methylpiperazin-1-yl)-1H-pyrrolo[2,3-b]pyridin-2-yl)-1H-pyrazolo[3,4-c]pyridin-5-yl)pyridin-3-yl)methyl)methanamine] | 150% | 5.16 | 300 nM | 
10 | CC(C)CC(=O)Nc1cncc(-c2cc3c(-c4cc5cccnc5[nH]4)n[nH]c3cn2)c1 [Compound 254, N-(5-(3-(1H-Pyrrolo[2,3-b]pyridin-2-yl)-1H-pyrazolo[3,4-c]pyridin-5-yl)pyridin-3-yl)-3-methylbutanamide] | 40% | 5.00 |  | 
11 | c1cncc(-c2cc3c(-c4cc5cccnc5[nH]4)n[nH]c3cn2)c1 [Compound 256, 5-(Pyridin-3-yl)-3-(1H-pyrrolo[2,3-b]pyridin-2-yl)-1H-pyrazolo[3,4-c]pyridine] | 28% | 5.77 |  | 
12 | O=C(Nc1cncc(-c2cc3c(-c4cc5cccnc5[nH]4)n[nH]c3cn2)c1)C1CC1 [Compound 272, N-(5-(3-(1H-Pyrrolo[2,3-b]pyridin-2-yl)-1H-pyrazolo[3,4-c]pyridin-5-yl)pyridin-3-yl)cyclopropanecarboxamide] | 18% | 5.00 |  | 
13 | FC1(F)CCN(Cc2cncc(-c3cc4c(-c5cc6cccnc6[nH]5)n[nH]c4cn3)c2)C1 [Compound 278, 5-(5-((3,3-Difluoropyrrolidin-1-yl)methyl)pyridin-3-yl)-3-(1H-pyrrolo[2,3-b]pyridin-2-yl)-1H-pyrazolo[3,4-c]pyridine] | 45% | 6.95 |  | 
14 | CCCC(=O)Nc1cncc(-c2cc3c(-c4cc5c(-c6cc(F)cc(NCCN(C)C)c6)ccnc5[nH]4)n[nH]c3cn2)c1 [Compound 465, N-(5-(3-(4-(3-((2-(Dimethylamino)ethyl)amino)-5-fluorophenyl)-1H-pyrrolo [2,3-b]pyridin-2-yl)-1H-pyrazolo[3,4-c]pyridin-5-yl)pyridin-3-yl)butyramide] | 162% | < 5.00 | 10 nM | 43%
15 | CN(C)CCNc1cc(F)cc(-c2ccnc3[nH]c(-c4n[nH]c5cnc(-c6cncnc6)cc45)cc23)c1 [Compound 475, N^1-(3-Fluoro-5-(2-(5-(pyrimidin-5-yl)-1H-pyrazolo[3,4-c]pyridin-3-yl)-1H-pyrrolo[2,3-b]pyridin-4-yl)phenyl)-N^2,N^2-dimethylethane-1,2-diamine] | 17% | < 5.00 |  | 27.5%
16 | CN1CCN(c2ccnc3[nH]c(-c4n[nH]c5cnc(-c6cn[nH]c6)cc45)cc23)CC1 [Compound 635, 3-(4-(4-Methylpiperazin-1-yl)-1H-pyrrolo[2,3-b]pyridin-2-yl)-5-(1H-pyrazol-4-yl)-1H-pyrazolo[3,4-c]pyridine] | 63% | < 5.00 | 10 nM | 44.9%
17 | CN1CCN(c2ccnc3[nH]c(-c4n[nH]c5cnc(-c6cncc(NC(=O)CC7CCNCC7)c6)cc45)cc23)CC1 [Compound 641, N-(5-(3-(4-(4-Methylpiperazin-1-yl)-1H-pyrrolo[2,3-b]pyridin-2-yl)-1H-pyrazolo[3,4-c]pyridin-5-yl)pyridin-3-yl)-2-(piperidin-4-yl)acetamide] | 341% | 5.30 | 100 nM | 
